According to article PMC7680421 (Cell chemical biology, 2020):
Blank lines part the entries; values can stand above or below the compound they belong to.

Experiments:
[1] = biological target: T1, ENPP1 in mouse plasma (Mus musculus, UniProt P06802); assay: Inhibition of cGAMP degradation in mouse plasma; type: biochemical; details: 50 mM EDTA, 37 °C
T1 sequence (P06802 85-906 limits assumed): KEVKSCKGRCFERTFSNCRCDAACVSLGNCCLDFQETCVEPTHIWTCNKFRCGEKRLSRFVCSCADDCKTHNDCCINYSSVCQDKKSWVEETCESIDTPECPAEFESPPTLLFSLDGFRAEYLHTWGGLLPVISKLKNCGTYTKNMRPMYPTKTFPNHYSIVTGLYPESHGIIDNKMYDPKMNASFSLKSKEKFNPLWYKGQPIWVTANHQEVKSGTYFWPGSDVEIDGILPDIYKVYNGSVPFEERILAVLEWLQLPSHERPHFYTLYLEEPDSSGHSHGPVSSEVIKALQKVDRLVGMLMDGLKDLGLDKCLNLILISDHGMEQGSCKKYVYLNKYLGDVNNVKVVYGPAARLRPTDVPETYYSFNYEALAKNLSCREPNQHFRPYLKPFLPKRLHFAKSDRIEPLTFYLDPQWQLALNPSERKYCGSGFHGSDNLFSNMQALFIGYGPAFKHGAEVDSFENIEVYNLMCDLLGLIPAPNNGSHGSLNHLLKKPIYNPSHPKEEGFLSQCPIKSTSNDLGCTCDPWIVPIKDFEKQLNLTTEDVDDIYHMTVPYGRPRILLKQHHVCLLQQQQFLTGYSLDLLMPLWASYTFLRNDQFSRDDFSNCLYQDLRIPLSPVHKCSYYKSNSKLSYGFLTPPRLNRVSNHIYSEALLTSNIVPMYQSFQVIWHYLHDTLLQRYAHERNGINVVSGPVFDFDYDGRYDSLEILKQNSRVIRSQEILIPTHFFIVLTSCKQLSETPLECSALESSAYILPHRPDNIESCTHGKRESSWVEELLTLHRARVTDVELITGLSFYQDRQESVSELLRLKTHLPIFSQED

[2] = biological target: ENPP1 in human plasma (Homo sapiens, UniProt P22413); details: 50 mM EDTA, 37 °C
ENPP1 in human plasma, sequence (P22413 103-925 limits assumed): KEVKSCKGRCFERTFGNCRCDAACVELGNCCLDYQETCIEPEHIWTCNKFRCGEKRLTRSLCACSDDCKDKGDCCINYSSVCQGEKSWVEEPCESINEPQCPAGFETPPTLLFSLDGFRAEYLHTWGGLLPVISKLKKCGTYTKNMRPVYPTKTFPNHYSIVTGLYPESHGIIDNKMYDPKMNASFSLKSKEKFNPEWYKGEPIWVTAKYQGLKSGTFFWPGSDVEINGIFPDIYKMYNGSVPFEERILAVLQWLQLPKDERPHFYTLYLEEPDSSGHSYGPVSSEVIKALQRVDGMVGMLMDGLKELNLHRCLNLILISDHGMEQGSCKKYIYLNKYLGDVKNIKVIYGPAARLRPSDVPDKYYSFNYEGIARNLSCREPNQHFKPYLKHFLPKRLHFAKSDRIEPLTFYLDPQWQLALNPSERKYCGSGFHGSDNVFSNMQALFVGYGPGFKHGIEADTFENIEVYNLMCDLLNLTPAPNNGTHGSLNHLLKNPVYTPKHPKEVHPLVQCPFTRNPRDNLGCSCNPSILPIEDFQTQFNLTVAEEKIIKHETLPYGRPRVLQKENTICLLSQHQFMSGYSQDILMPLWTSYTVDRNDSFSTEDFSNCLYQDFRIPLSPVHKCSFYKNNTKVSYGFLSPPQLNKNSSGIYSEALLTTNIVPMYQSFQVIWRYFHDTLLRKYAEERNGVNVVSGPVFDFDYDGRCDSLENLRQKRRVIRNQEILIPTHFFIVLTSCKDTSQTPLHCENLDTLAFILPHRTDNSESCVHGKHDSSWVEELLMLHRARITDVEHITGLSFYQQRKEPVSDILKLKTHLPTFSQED

[3] = Plasma kinetics: half-life of radiolabeled cGAMP in mouse plasma; type: in vitro ADME; details: 5 μM cGAMP, 37 °C
[4] = Plasma kinetics: half-life of radiolabeled cGAMP in human plasma; type: in vitro ADME; details: based on 5 healthy donors, 5 μM cGAMP, 37 °C
[5] = biological target: T2, Mouse ENPP1 (Mus musculus, UniProt P06802); details: substrate cGAMP, pH 7.4
T2 sequence (P06802 92-905 isoform P06802-2): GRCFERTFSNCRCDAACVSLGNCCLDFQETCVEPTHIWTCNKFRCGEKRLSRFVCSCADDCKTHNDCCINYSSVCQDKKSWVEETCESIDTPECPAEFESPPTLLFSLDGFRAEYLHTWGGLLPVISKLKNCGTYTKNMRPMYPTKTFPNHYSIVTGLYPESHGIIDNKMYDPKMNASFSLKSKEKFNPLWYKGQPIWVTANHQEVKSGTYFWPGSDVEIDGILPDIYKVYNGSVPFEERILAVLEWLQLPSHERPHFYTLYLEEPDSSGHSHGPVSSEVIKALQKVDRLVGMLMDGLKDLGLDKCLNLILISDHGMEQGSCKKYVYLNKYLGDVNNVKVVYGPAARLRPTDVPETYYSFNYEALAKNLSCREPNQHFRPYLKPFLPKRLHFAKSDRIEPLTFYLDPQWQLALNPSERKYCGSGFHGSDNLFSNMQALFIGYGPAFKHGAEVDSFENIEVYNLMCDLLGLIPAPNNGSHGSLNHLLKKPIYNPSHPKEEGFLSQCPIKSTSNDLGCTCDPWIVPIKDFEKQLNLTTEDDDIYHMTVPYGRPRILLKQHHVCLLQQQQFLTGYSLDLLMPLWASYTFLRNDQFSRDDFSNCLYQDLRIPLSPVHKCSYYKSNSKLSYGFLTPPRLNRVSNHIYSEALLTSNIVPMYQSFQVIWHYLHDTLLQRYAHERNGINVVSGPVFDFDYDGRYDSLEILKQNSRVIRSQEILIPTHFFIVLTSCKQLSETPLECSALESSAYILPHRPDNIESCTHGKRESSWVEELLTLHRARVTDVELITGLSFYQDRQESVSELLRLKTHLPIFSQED

[6] = biological target: hERG channel (Homo sapiens, UniProt Q12809); assay: hERG channel inhibition assay; details: at 25 μM
hERG channel, sequence (Q12809 whole entry): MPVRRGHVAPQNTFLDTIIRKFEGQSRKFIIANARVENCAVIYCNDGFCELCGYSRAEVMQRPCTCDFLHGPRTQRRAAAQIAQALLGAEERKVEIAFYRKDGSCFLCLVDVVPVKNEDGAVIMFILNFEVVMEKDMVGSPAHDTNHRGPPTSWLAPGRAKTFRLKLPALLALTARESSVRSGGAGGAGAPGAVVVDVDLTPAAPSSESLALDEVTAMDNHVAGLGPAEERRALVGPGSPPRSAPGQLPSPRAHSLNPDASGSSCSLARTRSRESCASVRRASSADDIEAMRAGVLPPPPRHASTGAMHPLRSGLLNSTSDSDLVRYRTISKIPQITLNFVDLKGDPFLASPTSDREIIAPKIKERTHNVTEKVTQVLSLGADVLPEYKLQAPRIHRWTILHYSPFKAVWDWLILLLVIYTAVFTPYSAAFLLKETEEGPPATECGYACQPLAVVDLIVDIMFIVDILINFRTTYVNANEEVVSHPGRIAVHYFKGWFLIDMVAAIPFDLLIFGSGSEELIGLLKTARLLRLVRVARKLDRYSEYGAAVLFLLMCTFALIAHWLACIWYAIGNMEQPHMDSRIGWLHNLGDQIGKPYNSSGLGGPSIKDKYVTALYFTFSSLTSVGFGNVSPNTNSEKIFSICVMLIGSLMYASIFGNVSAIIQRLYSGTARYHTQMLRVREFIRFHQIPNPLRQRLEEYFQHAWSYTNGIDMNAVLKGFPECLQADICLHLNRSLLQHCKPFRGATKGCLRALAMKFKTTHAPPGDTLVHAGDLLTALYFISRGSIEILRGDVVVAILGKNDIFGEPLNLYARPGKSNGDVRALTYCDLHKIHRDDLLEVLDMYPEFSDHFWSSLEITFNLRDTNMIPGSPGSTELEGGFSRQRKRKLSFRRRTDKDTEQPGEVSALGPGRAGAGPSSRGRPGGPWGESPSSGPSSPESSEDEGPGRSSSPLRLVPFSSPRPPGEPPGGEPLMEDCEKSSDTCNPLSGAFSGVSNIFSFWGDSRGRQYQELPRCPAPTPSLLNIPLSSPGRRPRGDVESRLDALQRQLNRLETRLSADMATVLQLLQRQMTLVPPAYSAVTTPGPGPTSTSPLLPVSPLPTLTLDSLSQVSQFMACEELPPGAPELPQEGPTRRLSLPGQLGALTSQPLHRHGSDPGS

[7] = biological target: T2, Mouse ENPP1; assay: In vitro ENPP1 activity assay with cGAMP as substrate; type: biochemical; details: Ki at pH 7.4

effect on cGAMP degradation [1]: abrogated cGAMP degradation | effect on cGAMP degradation [2]: abrogated cGAMP degradation
SMILES: O=C(O)CN(CCN(CC(=O)O)CC(=O)O)CC(=O)O [EDTA]

SMILES: Nc1nc2c(ncn2[C@@H]2O[C@@H]3COP(=O)(O)O[C@H]4[C@@H](O)[C@H](n5cnc6c(N)ncnc65)O[C@@H]4COP(=O)(O)O[C@@H]2[C@@H]3O)c(=O)[nH]1 [cGAMP, 2’,3’-cyclic GMP-AMP]
t1/2 of cGAMP [3]: 16 min | t1/2 of cGAMP [4]: 30 to 60 min | Km [5]: 240 µM

SMILES: COc1cc2ncnc(N3CCC(CCP(=O)(O)O)CC3)c2cc1OC [compound 15]
hERG inhibition [6]: no inhibition

SMILES: COc1ccc2ncnc(N3CCC(CCP(=O)(O)O)CC3)c2c1 [compound 25]
loss in potency compared to compound 15 [7]: 100 fold

SMILES: COc1cc2nccc(N3CCC(CCP(=O)(O)O)CC3)c2cc1OC [compound 46]
loss in potency compared to compound 15 [7]: 3 fold
